Data as given in patent US9250232B2, “Fluorescent probe” (THE UNIVERSITY OF TOKYO, priority 2012, dated 2016).

Legend:
[1] = Optical characteristics (absorption and fluorescence maxima, quantum yield) in 0.1 M phosphate buffer with 1% DMSO; format: physicochemical; conditions: for λmax,fl (nm) / Φfl (fluorescence quantum yield): 0.1 M phosphate buffer (pH 9); for Φfl (fluorescence quantum yield): standard 2-Me TM (0.42); for λmax,abs (nm) pH 9: pH 9, 0.1 M phosphate buffer
Protocol: (§1) The measurement was performed in a 0.1 M phosphate buffer (pH 9) containing 1% dimethyl sulfoxide (DMSO). pKa was obtained from the absorbance meaured in a phosphate buffer (pH 9) by single-phase or two-phase curve fitting.

[2] = pKa from absorbance in phosphate buffer by single-phase or two-phase curve fitting; conditions: single value given
Protocol: as §1

[3] = 2-Me TokyoMagenta in 0.1 M phosphate buffer (pH 9); compound of WO2012/099218; cited from earlier work
HEK293 cells = test: Imaging of β-galactosidase in live HEK293 cells (lacZ+ / lacZ−), intracellular uptake; format: cell-based; conditions: 10 μM, 37° C., 30 minutes, DMEM with 0.1% DMSO, confocal microscope
Protocol: For the HEK293 cells in which the lacZ gene encoding β-galactosidase was stably expressed (lacZ+), and the HEK293 cells into which the lacZ gene was not introduced (lacZ−) as a control, β-galactosidase in the cells was measured by using diCl-2-COOH TM-monoβGal or diCl-2-COOH TM-diβGal. The HEK293 cells (lacZ−) were incubated at 37° C. for 30 minutes in the Dulbecco's Modified Eagle's medium (DMEM) containing 0.1% DMSO together with 10 μM diCl-2-COOH TM-monoβGal or diCl-2-COOH TM-diβGal. […] The results are shown in FIG. 19 (diCl-2-COOH TM-monoβGal) and FIG. 20 (diCl-2COOHTM-diβGal).

[4] = Estimate of open-ring ratio by comparison with the absorption spectrum of TM-βGal; format: physicochemical; conditions: pH of physiological conditions; 10 μM in 0.1 M sodium phosphate buffer, 1.0% DMSO; versus TM-βGal
Protocol: In order to estimate the open-ring ratio of diCl-2-COOH TM-monoβGal, comparison with the absorption spectrum of TM-βGal was performed. […] The measurement was performed by using 10 μM diCl-2-COOH TM-monoβGal in a 0.1 M sodium phosphate buffer of various pH values containing 1.0% DMSO. The excitation wavelength was 450 nm for TMβGal (compound described in International Patent Publication WO2012/099218), or 460 nm for diCl-2-COOH TM-monoβGal.

[5] = Optical characteristics of diCl-2-COOH TM-monoβGal in 0.1 M phosphate buffer; format: physicochemical
Protocol: The quantum yield was calculated by using the quantum yield (0.85) of fluorescein in 0.1M aqueous sodium hydroxide as the standard.

Protocol for physchem: as §1

For `C[Si]1(C)C2=C(Cl)C(=O)C=CC2=C(c2ccccc2C(=O)O)c2ccc(O)c(Cl)c21` [2-COOH DCTM, 4′,5′-Dichloro-2-COOH TokyoMagenta], the “λmax,fl (nm)” value [1] was 607 nm, the “Φfl (fluorescence quantum yield)” value [1] was 0.48 and the “λmax,abs (nm) pH 9” value [1] was 591 nm.
For `C[Si]1(C)C2=CC(=O)C=CC2=C(c2ccccc2C(=O)O)c2ccc(O)cc21` [2-COOH TM], the “λmax,fl (nm)” value [1] was 598 nm, the “Φfl (fluorescence quantum yield)” value [1] was 0.38 and the “λmax,abs (nm) pH 9” value [1] was 582 nm. The pKa (physchem; pKa (first of two printed values)) was 8.3 and the pKa (physchem; pKa (second of two printed values)) was 7.6.
For `Cc1ccccc1C1=C2C=CC(=O)C=C2[Si](C)(C)c2cc(O)ccc21` [2-Me TM, 2-Me TokyoMagenta], the pKa [2] was 6.8, the “λmax,fl (nm)” value [1] was 598 nm and the “λmax,abs (nm) pH 3” value ([1]; pH 3, 0.1 M phosphate buffer) was 472 nm. For the same compound, the “λmax,abs (nm) pH 9” value [1] was 582 nm and the “Φfl (quantum yield used as the standard)” value [3] was 0.42.
In the case of `C[Si]1(C)C2=C(Cl)C(=O)C=CC2=C(c2ccccc2C(=O)O)c2ccc(O[C@@H]3O[C@H](CO)[C@H](O)[C@H](O)[C@H]3O)c(Cl)c21` [diCl-2-COOH TM-monoβGal, 4′,5′-Dichloro-2-COOH TokyoMagenta mono-β-D-galactopyranoside], the “Intracellular uptaking amount compared with diCl-2-COOH TM-diβGal” value (HEK293 cells) is reported as “larger”, the “Part having the ring-closed structure, which does not show absorption” value [4] is reported as “more than 95%” and the “Absorption λmax [nm]” value [5] is reported as 460 nm. The “Fluorescence λmax [nm]” value [5] was 555 nm, the “Extinction Coefficient ε [M^−1cm^−1]” value ([5]; pH 7.4) was 1,200 (pH 7.4) M^−1cm^−1 and the “Quantum yield Φfl” value ([5]; pH 7.4, standard fluorescein (0.85)) was 0.09 (pH 7.4).
